Here are results for two compounds from article doi:10.1101/2024.04.15.589676 (bioRxiv, 2024).

Molecules are shown by their SMILES. Read-outs that look alike come from different tables or passages of the source.

The test system of data set [1] is Vesicular stomatitis virus rVSV-SARS-CoV-2-S. To be noted: inhibitor; read-out: EC50 rVSV-SARS-CoV-2-S, Vero.
Data set [2] deals with SARS-CoV-2. Details: species or system human adult lung organoid-derived monolayers; SARS-CoV-2 infectious titre in organoid supernatants, plaque assay. To be noted: inhibitor; read-out: EC50 SARS-CoV-2, ALO.
Data set [3] in a line: in vitro. To be noted: human, adult lung organoid monolayer.
The test system of data set [4] is SARS-CoV-2-nluc, WA1/2020. To be noted: inhibitor; read-out: EC50 SARS-CoV-2-nluc, Calu-3.
Data set [5] concerns Vesicular stomatitis virus rVSV-SARS-CoV-2-S. To be noted: inhibitor; read-out: EC50 rVSV-SARS-CoV-2-S, Vero. This is another data set of the same source.
In data set [6] the test system is Venezuelan equine encephalitis virus VEEV (TC-83). As to conditions: inhibitor; read-out: EC50 VEEV (TC-83), U-87 MG.
Data set [7] relates to DENV2. More on the design: DENV2 replication, plaque assay. To be noted: inhibitor; read-out: EC50 DENV2, Huh7.
The test system of data set [8] is Ebola virus EBOV. As to conditions: 48 h; inhibitor; read-out: EC50 EBOV, Huh7.
For data set [9], the system named is Marburg virus MARV. As to conditions: 48 h; inhibitor; read-out: EC50 MARV, Huh7.
For data set [10], the system named is Huh7. To be noted: human, huh7 cells.

For `Cc1cccc(/C=N/Nc2cc(N3CCOCC3)nc(OCCc3ccccn3)n2)c1` [Apilimod], the EC50 (commonly the concentration that produces a half-maximal response) worked out at 12 nM in data set [1] and 420 nM in data set [2]. Besides, the CC50 in data set [3] was found to be 9900 nM.

For the compound `COc1ccc(-c2cnc3c(C#Cc4cccnc4)snc3c2)cc1OC` [RMC-113], the EC50 in [4] came to 1450 nM; in data set [5], 1800 nM; in data set [6], 1400 nM; in data set [7] it was 1400 nM; in data set [8], 5000 nM; in data set [9], 7800 nM. The compound further yielded a CC50 in [10] of over 10000 nM.
